Assay results from patent US8802710B2, “Metronidazole esters for treating rosacea” (Galderma Research & Development, priority 2010, dated 2014).

Columns and labels:
[1] = Stability on keratinocyte cultures; type: in vitro ADME, human; conditions: 2 μM, human neonatal keratinocyte culture, kinetics over 24 hours, LC/MS/MS; read-out: half-life time (t1/2) (converted)
Method: (§1) The stability on keratinocyte cultures is evaluated using human neonatal keratinocytes (Cell'N Tech) cultured in a 75 cm^2 flask and detached at 90-100% of confluence with vegetable trypsin (trypLE GIBCO). The compound of formula (I) was tested at 2 μM in the medium CNT-057 (Cell'N Tech) supplemented with 0.1% pluronic acid in 24-well plates. The final DMSO concentration is 0.1%. Degradation kinetics are performed with a Tecan EVO robot over 24 hours. The samples taken are then assayed by LC/MS/MS (Micromass) in comparison with a calibration range of the test product, prepared under the same conditions as the samples (⅓ culture medium and ⅔ methanol). The chromatographic conditions are optimized for each product. An assay of the appearance of metronidazole is also performed using these same samples.

[2] = system: oedema induced by arachidonic acid (AA) on mouse ear; assay: Model of acute inflammation on mouse ear: arachidonic acid-induced oedema; type: in vivo; conditions: for IC50 (concentration at which 50% inhibition of the oedema induced by AA alone is observed): topical on mouse ear, oedema measured 1 hour after application, % weight per volume of solution
Method: The anti-inflammatory activities of the compound of formula (I) in racemic form, of the S enantiomer of the compound of formula (I), of metronidazole and of flurbiprofen were measured in an in vivo test performed on a mouse model. This model consists in inducing inflammation of the mouse ear with a single application of arachidonic acid (AA). Female Balb/c ByJlco mice are used. The oedema is induced by applying to the mouse's ear 20 μL of AA dissolved to 4% in a 1/1 THF/methanol mixture. The anti-inflammatory activities of the S enantiomer of the compound of formula (I), of the compound of formula (I) in racemic form, of metronidazole and of flurbiprofen were evaluated after topical application onto the inner face of the mouse's ear of 20 μL of a solution of the compound in a 1/1 THF/methanol mixture containing 4% AA.
Solutions containing 0.01%; 0.03%; 0.1%; 0.3%; 1% and 2% of the test compound are thus prepared. The percentages correspond to the weight of the test compound per volume of solution. The oedema is evaluated, 1 hour after application, by measuring the thickness of the ear using an Oditest® micrometer. The oedema induced by AA alone is evaluated, 1 hour after application, by measuring the thickness of the ear using an Oditest® micrometer. It is evaluated relative to a group comprising only the vehicle (1/1 THF/methanol).
The inhibition of the oedema is expressed as a percentage of reduction, by the test molecule and at the test concentration, of the oedema induced by AA alone.
The IC50 corresponds to the concentration (or dose) at which 50% inhibition of the oedema induced by AA alone is observed.

[3] = system: oedema induced by TPA (phorbol 12-myristate-13-acetate) on mouse ear; assay: Model of acute inflammation on mouse ear: oedema induced by TPA; type: in vivo; conditions: for inhibition of the TPA-induced inflammation: concentration of 1%, TPA test in mice; for IC50 (concentration at which 50% inhibition of the oedema induced by TPA alone is observed): applied with 0.01% TPA in ethanol, oedema measured 6 hours after application
Method: The anti-inflammatory activities of the compound of formula (I) in racemic form, of metronidazole and of flurbiprofen (racemic) were measured in an in vivo test performed on a mouse model.
The model used is the model of mouse ear inflammation induced by a single application of TPA (phorbol 12-myristate-13-acetate). Female Balb/c ByJlco mice are used.
The oedema is induced by applying to the ear 20 μl of 0.01% TPA dissolved in ethanol.
The racemic compound of formula (I) is dissolved, at the desired concentration, in the 0.01% TPA solution and thus applied to a group of mice at the same time as the TPA.
Similarly, flurbiprofen (racemic) is dissolved, at the desired concentration, in the 0.01% TPA solution and thus applied to another group of mice at the same time as the TPA.
Finally, metronidazole is dissolved, at the desired concentration, in the 0.01% TPA solution and thus applied to another group of mice at the same time as the TPA.
The oedema is evaluated, 6 hours after application, by measuring the thickness of the ear using an Oditest® micrometer.
The TPA-induced oedema is evaluated relative to the ethanol vehicle group. The inhibition, with the racemic compound of formula (I), with flurbiprofen (racemic) or with metronidazole, of the oedema induced by TPA alone is expressed by the IC50.
The IC50 corresponds to the concentration (or dose) at which 50% inhibition of the oedema induced by TPA alone is observed.

[4] = system: human neonatal keratinocytes; assay: Stability on keratinocyte cultures; type: in vitro ADME; conditions: human keratinocyte cultures
Method: as §1

Cc1ncc([N+](=O)[O-])n1CCOC(=O)[C@@H](C)c1ccc(-c2ccccc2)c(F)c1 [2-(2-methyl-5-nitroimidazol-1-yl)ethyl (S)-2-(2-fluorobiphenyl-4-yl)propionate]
half-life at 2 μM [1]: 18 h | IC50 (concentration at which 50% inhibition of the oedema induced by AA alone is observed) [2]: 1% | inhibition of the TPA-induced inflammation [3]: 95%

CC(C(=O)O)c1ccc(-c2ccccc2)c(F)c1 (racemic) [flurbiprofen (racemic), flurbiprofen]
inhibition of the oedema induced by AA alone ([2]; dose of 0.1%, topical, 1 hour after application): 60% | IC50 (concentration at which 50% inhibition of the oedema induced by AA alone is observed) [2]: 0.037% | IC50 (concentration at which 50% inhibition of the oedema induced by TPA alone is observed) [3]: 0.22%

Cc1ncc([N+](=O)[O-])n1CCOC(=O)c1cc(-c2ccc(F)cc2F)ccc1O [metronidazole ester with diflunisal]
hydrolysis / stability of the ester on keratinocyte cultures [4]: do not become hydrolysed

Cc1ncc([N+](=O)[O-])n1CCOC(=O)C(C)c1ccc(-c2ccccc2)c(F)c1 (racemic) [2-(2-methyl-5-nitroimidazol-1-yl)ethyl 2-(2-fluorobiphenyl-4-yl)propionate]
half-life at 2 μM [1]: 6 h | hydrolysis / stability of the ester on keratinocyte cultures [4]: specifically cleaved in keratinocytes | anti-inflammatory activity compared with flurbiprofen ([2]; dose of 1%, AA-induced mouse ear oedema, result in words): equivalent to that of flurbiprofen (racemic) at the 0.1% dose | IC50 (concentration at which 50% inhibition of the oedema induced by TPA alone is observed) [3]: 0.22%

Cc1ncc([N+](=O)[O-])n1CCO [metronidazole]
anti-inflammatory activity ([2]; AA-induced mouse ear oedema, result in words): no anti-inflammatory activity | anti-inflammatory activity ([3]; TPA-induced mouse ear oedema, result in words): no anti-inflammatory activity

C[C@H](C(=O)O)c1ccc(-c2ccccc2)c(F)c1 [(S)-flurbiprofen]
inhibition of the TPA-induced inflammation [3]: 70%

COc1ccc2c(c1)c(CC(=O)OCCn1c([N+](=O)[O-])cnc1C)c(C)n2C(=O)c1ccc(Cl)cc1 [metronidazole ester with indomethacin]
hydrolysis / stability of the ester on keratinocyte cultures [4]: do not become hydrolysed

Cc1ncc([N+](=O)[O-])n1CCOC(=O)c1cccnc1Nc1cccc(C(F)(F)F)c1 [metronidazole ester with niflumic acid]
hydrolysis / stability of the ester on keratinocyte cultures [4]: do not become hydrolysed

Cc1ncc([N+](=O)[O-])n1CCOC(=O)C1CCn2c(C(=O)c3ccccc3)ccc21 (stereo not shown) [metronidazole ester with ketorolac]
hydrolysis / stability of the ester on keratinocyte cultures [4]: do not become hydrolysed

C[C@@H](C(=O)O)c1ccc(-c2ccccc2)c(F)c1 [(R)-flurbiprofen]
inhibition of the TPA-induced inflammation [3]: 80%

Cc1ncc([N+](=O)[O-])n1CCOC(=O)[C@H](C)c1ccc(-c2ccccc2)c(F)c1 [2-(2-methyl-5-nitroimidazol-1-yl)ethyl (R)-2-(2-fluorobiphenyl-4-yl)propionate]
inhibition of the TPA-induced inflammation [3]: 85%
